Consider 22 compounds from patent US11168086B2, “Methods of synthesizing pyrazine compounds” (Hoffmann-La Roche Inc., priority 2015, dated 2021).

In one test the test system is HBV. The experiment in a line: HBV inhibition assay: anti-HBV activity in vitro in HepG2.2.15 cells (extracellular HBV DNA by qPCR). The format is cell-based. Particulars: Hepatitis B virus, 120 h, five days after compound treatment, extracellular HBV DNA in culture supernatant by qPCR, concentration at which HBV replication is inhibited by 50%. Summed up:
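HepG2.2.15 cells (stably carrying HBV genome) treated with half-log serially diluted compounds at 0.5% DMSO final for five days. Extracellular HBV DNA in supernatant quantified by qPCR after Proteinase K digestion; EC50 is concentration giving 50% inhibition of replication.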
In general terms: In qPCR the cycle at which signal appears reflects the starting amount.
In the case of `C[C@H]1Cn2ncc(N3CC(c4ccncc4)CC3=O)c2CN1C(=O)Nc1cc(F)c(F)c(F)c1` (stereo partly drawn) [Example 354, (6S)-6-methyl-3-[2-oxo-4-(4-pyridyl)pyrrolidin-1-yl]-N-(3,4,5-trifluorophenyl)-6,7-dihydro-4H-pyrazolo[1,5-a]pyrazine-5-carboxamide], the response was half-maximal at 0.013 µM (EC50).
On to `C[C@H]1Cn2ncc(N3CC(c4ccccn4)OC3=O)c2CN1C(=O)Nc1cc(F)c(F)c(F)c1` (stereo partly drawn) [Example 345, (6S)-6-methyl-3-[2-oxo-5-(2-pyridyl)oxazolidin-3-yl]-N-(3,4,5-trifluorophenyl)-6,7-dihydro-4H-pyrazolo[1,5-a]pyrazine-5-carboxamide], for which the EC50 turned out to be 0.017 µM.
For the compound `CC1Cn2ncc(-c3ccc(F)cc3F)c2CN1C(=O)Nc1ccc(F)c(Cl)c1` (stereo not shown) [Example 92, N-(3-chloro-4-fluoro-phenyl)-3-(2,4-difluorophenyl)-6-methyl-6,7-dihydro-4H-pyrazolo[1,5-a]pyrazine-5-carboxamide], the EC50 was 0.013 µM.
The compound `C[C@H]1Cn2ncc(N3C(=O)COC[C@@H]3C)c2CN1C(=O)Nc1cc(F)c(F)c(F)c1` [Example 372, (6S)-6-methyl-3-[(3S)-3-methyl-5-oxo-morpholin-4-yl]-N-(3,4,5-trifluorophenyl)-6,7-dihydro-4H-pyrazolo[1,5-a]pyrazine-5-carboxamide] showed an EC50 of 0.05 µM.
Consider `C[C@H]1Cn2ncc(N3CC(C(F)(F)F)CC3=O)c2CN1C(=O)Nc1ccc(F)c(Cl)c1` (stereo partly drawn) [Example 255, (6S)—N-(3-chloro-4-fluoro-phenyl)-6-methyl-3-[2-oxo-4-(trifluoromethyl)pyrrolidin-1-yl]-6,7-dihydro-4H-pyrazolo[1,5-a]pyrazine-5-carboxamide], for which the EC50 was found to be 0.028 µM.
The same measure, in the same setting: next, `CC1Cn2ncc(-c3ccc(F)cc3F)c2CN1C(=O)Nc1ccnc(C(F)F)c1` (stereo not shown) [Example 218, N-[2-(difluoromethyl)-4-pyridyl]-3-(2,4-difluorophenyl)-6-methyl-6,7-dihydro-4H-pyrazolo[1,5-a]pyrazine-5-carboxamide]: 0.014 µM; `C[C@H]1Cn2ncc(N3CC(C#N)CC3=O)c2CN1C(=O)Nc1ccc(F)c(Cl)c1` (stereo partly drawn) [Example 229, (6S)—N-(3-chloro-4-fluoro-phenyl)-3-(4-cyano-2-oxo-pyrrolidin-1-yl)-6-methyl-6,7-dihydro-4H-pyrazolo[1,5-a]pyrazine-5-carboxamide]: 0.047 µM.
For the compound `C[C@H]1Cn2ncc(N3C[C@H](C#N)CC3=O)c2CN1C(=O)Nc1cc(F)c(F)c(F)c1` [Example 240-1, (6S)-3-[(4R)-4-cyano-2-oxo-pyrrolidin-1-yl]-6-methyl-N-(3,4,5-trifluorophenyl)-6,7-dihydro-4H-pyrazolo[1,5-a]pyrazine-5-carboxamide], the response was half-maximal at 0.055 µM (EC50).
Turning to `C[C@H]1Cn2ncc(N3CCNC3=O)c2CN1C(=O)Nc1cc(F)c(F)c(F)c1` [Example 368, (6S)-6-methyl-3-(2-oxoimidazolidin-1-yl)-N-(3,4,5-trifluorophenyl)-6,7-dihydro-4H-pyrazolo[1,5-a]pyrazine-5-carboxamide], the EC50 was found to be 0.047 µM. The EC50 values of the last two compounds are within 1.5-fold of each other.
Consider `O=C(Nc1ccc(F)c(Cl)c1)N1CCn2ncc(C3CCCC3)c2C1` [Example 78, N-(3-chloro-4-fluoro-phenyl)-3-cyclopentyl-6,7-dihydro-4H-pyrazolo[1,5-a]pyrazine-5-carboxamide], for which a half-maximal response (EC50) required 0.029 µM. This EC50 lies about 1.6-fold lower than the previous one.
For `O=C(Nc1ccc(F)c(Cl)c1)N1CCn2ncc(-c3ccc(F)cc3)c2C1` [Example 21, N-(3-chloro-4-fluoro-phenyl)-3-(4-fluorophenyl)-6,7-dihydro-4H-pyrazolo[1,5-a]pyrazine-5-carboxamide], it took 0.076 µM to reach a half-maximal effect (EC50). This EC50 lies about 2.6-fold higher than the previous one.
On the same count and under the same terms, next, `C[C@H]1Cn2ncc(N3CCOCC3=O)c2CN1C(=O)Nc1cc(F)c(F)c(C(F)F)c1` [Example 271, (6S)—N-[3-(difluoromethyl)-4,5-difluoro-phenyl]-6-methyl-3-(3-oxomorpholin-4-yl)-6,7-dihydro-4H-pyrazolo[1,5-a]pyrazine-5-carboxamide]: 0.038 µM; `Cc1nnc(C2(C)CC(=O)N(c3cnn4c3CN(C(=O)Nc3cc(F)c(F)c(F)c3)[C@@H](C)C4)C2)o1` (stereo partly drawn) [Example 403, (6S)-6-methyl-3-[4-methyl-4-(5-methyl-1,3,4-oxadiazol-2-yl)-2-oxo-pyrrolidin-1-yl]-N-(3,4,5-trifluorophenyl)-6,7-dihydro-4H-pyrazolo[1,5-a]pyrazine-5-carboxamide]: 0.031 µM.
In turn, `C[C@H]1Cn2ncc(N3CCCC3=O)c2CN1C(=O)Nc1ccc(F)c(Cl)c1` [Example 355, (6S)—N-(3-chloro-4-fluoro-phenyl)-6-methyl-3-(2-oxopyrrolidin-1-yl)-6,7-dihydro-4H-pyrazolo[1,5-a]pyrazine-5-carboxamide] came in with an EC50 of 0.036 µM. The EC50 values of the last two compounds are within 1.5-fold of each other.
`C[C@H]1Cn2ncc(N3CCOCC3=O)c2CN1C(=O)Nc1ccc(F)c(Cl)c1` [Example 364, (6S)—N-(3-chloro-4-fluoro-phenyl)-6-methyl-3-(3-oxomorpholin-4-yl)-6,7-dihydro-4H-pyrazolo[1,5-a]pyrazine-5-carboxamide]: the EC50 is 0.028 µM.
With `C[C@H]1Cn2ncc(N3CC(C(=O)Nc4ncco4)CC3=O)c2CN1C(=O)Nc1cc(F)c(F)c(F)c1` (stereo partly drawn) [Example 392, (6S)-6-methyl-3-[4-(oxazol-2-ylcarbamoyl)-2-oxo-pyrrolidin-1-yl]-N-(3,4,5-trifluorophenyl)-6,7-dihydro-4H-pyrazolo[1,5-a]pyrazine-5-carboxamide], the EC50 is 0.088 µM.
The compound `CC1Cn2ncc(-c3ccc(F)cc3)c2CN1C(=O)Nc1cc(F)c(F)c(F)c1` (stereo not shown) [Example 53, 3-(4-fluorophenyl)-6-methyl-N-(3,4,5-trifluorophenyl)-6,7-dihydro-4H-pyrazolo[1,5-a]pyrazine-5-carboxamide] yielded an EC50 of 0.034 µM.
On the same count and under the same terms, in the case of `C[C@H]1Cn2ncc(N3CC(Nc4ncc(F)cn4)CC3=O)c2CN1C(=O)Nc1cc(F)c(F)c(F)c1` (stereo partly drawn) [Example 414, (6S)-3-[4-[(5-fluoropyrimidin-2-yl)amino]-2-oxo-pyrrolidin-1-yl]-6-methyl-N-(3,4,5-trifluorophenyl)-6,7-dihydro-4H-pyrazolo[1,5-a]pyrazine-5-carboxamide] it was 0.017 µM.
In turn, `C[C@H]1Cn2ncc(N3CC(c4ccccc4)NC3=O)c2CN1C(=O)Nc1cc(F)c(F)c(F)c1` (stereo partly drawn) [Example 329, (6S)-6-methyl-3-(2-oxo-4-phenyl-imidazolidin-1-yl)-N-(3,4,5-trifluorophenyl)-6,7-dihydro-4H-pyrazolo[1,5-a]pyrazine-5-carboxamide] yielded an EC50 of 0.004 µM. Compared with the last compound, the EC50 is about 4.2-fold lower.
Turning to `C[C@H]1Cn2ncc(N3CC(C#N)CC3=O)c2CN1C(=O)Nc1cc(F)c(F)c(F)c1` (stereo partly drawn) [Example 240, (6S)-3-(4-cyano-2-oxo-pyrrolidin-1-yl)-6-methyl-N-(3,4,5-trifluorophenyl)-6,7-dihydro-4H-pyrazolo[1,5-a]pyrazine-5-carboxamide], the EC50 came out at 0.016 µM.

The same test, now with this note: five days after compound treatment, extracellular HBV DNA in culture supernatant by qPCR, concentration at which HBV replication is inhibited by 50%.
Compound `C[C@H]1Cn2ncc(N3CC(c4ccccc4)C(O)C3=O)c2CN1C(=O)Nc1cc(F)c(F)c(F)c1` (single isomer, unassigned) [Example 438-4] yielded an EC50 of 0.01 µM.
With `C[C@H]1Cn2ncc(N3CC(c4ccccc4)C(O)C3=O)c2CN1C(=O)Nc1cc(F)c(F)c(F)c1` (single isomer, unassigned) [Example 438-2], it took 0.108 µM to reach a half-maximal effect (EC50).

For orientation: EC50 means the midpoint of the concentration-response curve.
